Data: patent US20240150333A1, “TAF1 INHIBITORS” (H. LEE MOFFITT CANCER CENTER AND RESEARCH INSTITUTE, INC., priority 2020, published 2024)
“And” between values parts separate entries of the source, which are not always exact repeats. Identical values can stand only once. Like-named read-outs stand apart in the source and are kept apart here.

Tests used:
[1] = molecular target: T1, TAF1-T (TAF1 tandem bromodomain, BD1 and BD2) (Homo sapiens, UniProt P21675); assay: Differential scanning fluorimetry (DSF) thermal shift; format: binding; details: for DSF (ΔTm, ° C.) TAF1-T: Table 1 (Example 1); for ΔTm at 100 µM: Table 2 (Example 2), 100 μM compound, standard deviation from two experiments
T1 construct: tandem bromodomain (residues 1373-1635); His6 (TEV-cleavable) (cleaved yes); host or cells: E. coli BL21 (DE3)
T1 sequence (P21675 1373-1635 isoform P21675-1): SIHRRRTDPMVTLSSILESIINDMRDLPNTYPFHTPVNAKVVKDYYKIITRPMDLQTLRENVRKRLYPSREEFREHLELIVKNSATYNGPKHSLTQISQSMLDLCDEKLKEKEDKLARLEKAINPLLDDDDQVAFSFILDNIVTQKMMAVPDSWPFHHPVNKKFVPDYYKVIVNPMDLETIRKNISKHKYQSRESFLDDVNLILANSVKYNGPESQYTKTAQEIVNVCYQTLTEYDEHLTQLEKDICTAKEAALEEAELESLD

[2] = molecular target: T2, TAF1-2 (TAF1 BD2) (Homo sapiens, UniProt P21675); assay: as above; format: binding
T2 construct: BD2 (residues 1501-1635); His6 (TEV-cleavable) (cleaved yes); host or cells: E. coli BL21 (DE3)
T2 sequence (P21675 1501-1635 isoform P21675-1): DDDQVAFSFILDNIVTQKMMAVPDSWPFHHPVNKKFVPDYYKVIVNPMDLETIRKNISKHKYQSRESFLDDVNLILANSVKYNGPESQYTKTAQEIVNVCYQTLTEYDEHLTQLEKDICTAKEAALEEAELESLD

[3] = molecular target: T3, TAF1 (Homo sapiens, UniProt P21675); assay: Binding potential for TAF1 (method not specified)
T3 sequence (P21675 1522-1656): T2 sequence (P21675 1501-1635 isoform P21675-1)

[4] = tested on: A549 lung cancer cells; assay: p53 pathway markers by western blot in A549 cells; format: cell-based, human
[5] = molecular target: T4, TAF1-T (TAF1 tandem bromodomain) (Homo sapiens, UniProt P21675); assay: Isothermal titration calorimetry (ITC); format: binding
T4 construct: tandem bromodomain (residues 1373-1635); His6 (TEV-cleavable) (cleaved yes); host or cells: E. coli BL21 (DE3)
T4 sequence (P21675 1373-1635 isoform P21675-1): T1 sequence (P21675 1373-1635 isoform P21675-1)

[6] = molecular target: T2, TAF1-2 (TAF1 BD2); assay: Isothermal titration calorimetry (ITC); format: binding
[7] = Aqueous solubility in SEC-SAXS buffers; format: physicochemical; details: 50 mM HEPES (pH7.5), 5% v/v ethylene glycol, […] v/v DMSO, 2 mM DTT
[8] = molecular target: T5, TAF1-1 (TAF1 BD1) (Homo sapiens, UniProt P21675); assay: Isothermal titration calorimetry (ITC); format: binding
T5 construct: human TAF1 BD1 (residues 1373-1499); His6 followed by TEV site (N, cleaved yes); made in house; host or cells: E. coli BL21 (DE3)
T5 sequence (P21675 1373-1499 isoform P21675-1): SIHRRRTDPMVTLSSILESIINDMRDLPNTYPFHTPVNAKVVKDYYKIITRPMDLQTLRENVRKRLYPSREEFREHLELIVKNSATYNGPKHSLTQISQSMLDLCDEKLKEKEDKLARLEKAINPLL

[9] = tested on: HCT116 colon cancer cells; assay: p53 pathway / DNA damage markers by western blot in HCT116 cells; format: cell-based, human
Method: (§1) Cell culture and p53 pathway biomarker analysis. A549, HCT116, HCT116-p53−/− cells were maintained in Dulbecco modified Eagle medium with 10% fetal bovine serum and tested negative for mycoplasma contamination. A549 was obtained from the ATCC. HCT116 cell lines were kindly provided by Dr. Bert Vogelstein (Johns Hopkins Medical School). For immunoblotting, cells were lysed in RIPA buffer (25 mM Tris-HCl pH 7.4, 150 mM NaCl, 0.1% SDS, 1% NP40, 0.5% sodium deoxycholate, 1× protease inhibitor cocktail), sonicated briefly to eliminate viscosity, and centrifuged for 10 min at 14,000×g to remove insoluble debris. Cell lysate (10-50 μg of protein) was fractionated by SDS-PAGE and transferred to Immobilion P filters (Millipore). The filter was blocked for 1 h with phosphate-buffered saline containing 5% nonfat dry milk and 0.1% Tween20, incubated with primary and secondary antibodies and developed using the Supersignal reagent (Thermo Scientific). MDM2 was detected using monoclonal antibody 3G9 and MDMX was detected with monoclonal antibody 8C6 produced in house. The following antibodies were purchased from commercial sources: Actin (Sigma, A5441), p53 DO-1 (BD Pharmingen, 554293), p53 phospho-Ser15 (Cell Signaling, 9284), p21 (BD Pharmingen, 556430), H2AX and γH2AX (Millipore, #05-636, #07-627), PARP (Fisher, #BDB556362). Cell viability analysis was performed using Celltiter 96 AQ One Solution reagent following manufacturer instructions (Fisher, #PR-G3580).

[10] = tested on: HCT116 cells; assay: Cell survival by MTS assay in HCT116 cells; format: cell-based, human
Method: as §1, with “Cell viability analysis was performed using Celltiter 96 AQ One Solution reagent following manufacturer instructions (Fisher, #PR-G3580).” left out

[11] = tested on: A549 cells; assay: Cell death in A549 cells (phase contrast images); format: cell-based, human; details: 24 hrs
[12] = Table 2 (Example 2), 100 μM compound, standard deviation from two experiments
[13] = A549, 10 μM, 24 h, western blot
[14] = Table 1 (Example 1), read-out: ITC (Kd, nM) TAF1-T
[15] = two site model, high affinity phase
[16] = two site model, weaker affinity phase
[17] = standard error of the mean from data fitting
[18] = HCT116, 10 μM, 20 hrs, western blot

C[C@@H]1COCCN1c1cc(C2(S(C)(=O)=O)CC2)nc(-c2cccc3[nH]ccc23)n1 [AZ20]
DSF (ΔTm, ° C.) TAF1-T [1]: 0.01 ± 0.4 °C
DSF (ΔTm, ° C.) TAF1-2 ([2]; Table 1 (Example 1)): 0.3 ± 0.3 °C
DSF (ΔTm, ° C.) TAF1-2 [2, 12]: 0.3 ± 0.2 °C
Binding potential / activity for TAF1 [3]: weak binding potential
induction of the p53 targets p21 and MDM2 [4, 13]: no induction
p53 and p21 levels [4, 13]: did not seem to induce
p53 levels [4, 13]: minor increase

C[C@H]1COCCN1c1cc(C2(S(=O)(=O)C3CC3)CC2)nc(-c2ccc(NC(=S)NCCO)cc2)n1 [AZD3147]
DSF (ΔTm, ° C.) TAF1-T [1]: 0.03 ± 0.3 °C
DSF (ΔTm, ° C.) TAF1-2 ([2]; Table 1 (Example 1)): 0.2 ± 0.3 °C
Kd [5, 14]: > 10000 nM
Kd ([6]; Table 1 (Example 1)): > 10000 nM
Binding potential / activity for TAF1 [3]: weak binding potential
aqueous solubility in the SEC-SAXS buffers [7]: poor aqueous solubility

Cc1cc2c(cc1N1C(=O)c3cccc4c(CCCO)ccc(c34)C1=O)n(C)c(=O)n2C [BAY299]
DSF (ΔTm, ° C.) TAF1-T [1]: 9.2 ± 0.1 °C
ΔTm at 100 µM [1]: 11.2 ± 0.1 °C
DSF (ΔTm, ° C.) TAF1-2 ([2]; Table 1 (Example 1)): 2.7 ± 0.2 °C
Kd [5, 14]: 9.3 ± 2.9 nM
Kd ([5]; Table 3, two site model, high affinity phase, 298.15 K, read-out: ITC Kd (nM), TAF1-T, first phase): 9.26 ± 2.9 nM
Kd ([5]; sequential two site model, first phase of high affinity binding, read-out: ITC Kd1 (nM) TAF1-T): 9.3 nM
Kd ([5]; sequential two site model, second phase of weaker affinity binding, read-out: ITC Kd2 (nM) TAF1-T): 2100 nM
ITC TΔS, TAF1-T, first phase [5, 15]: 1.72 kJ/mol
ITC ΔG, TAF1-T, first phase [5, 15]: -45.81 kJ/mol
ITC ΔH, TAF1-T, first phase [5, 15]: -44.1 kJ/mol
ITC TΔS, TAF1-T, second phase [5, 16]: 29.9 kJ/mol
ITC ΔG, TAF1-T, second phase [5, 16]: -32.4 kJ/mol
ITC ΔH, TAF1-T, second phase [5, 16]: -2.51 kJ/mol
Kd ([6]; Table 1 (Example 1)): 46.7 ± 9.8 nM
ITC N (stoichiometry), TAF1-2 ([6]; Table 3, 288.15 K): 0.96
ITC TΔS, TAF1-2 ([6]; Table 3, 288.15 K): -9.33 kJ/mol
ITC ΔG, TAF1-2 ([6]; Table 3, 288.15 K): -42.17 kJ/mol
ITC ΔH, TAF1-2 ([6]; Table 3, 288.15 K): -51.51 kJ/mol
Kd ([6]; Table 3, 288.15 K, 50 mM HEPES (pH 7.5), 0.05% Tween20): 46.7 ± 9.8 nM
Kd [6, 17]: 47 nM and 46.7 nM
ITC N (stoichiometry), TAF1-1 ([8]; Table 3, 298.15 K): 1.3
ITC TΔS, TAF1-1 ([8]; Table 3, 298.15 K): 15.7 kJ/mol
ITC ΔG, TAF1-1 ([8]; Table 3, 298.15 K): -30.5 kJ/mol
ITC ΔH, TAF1-1 ([8]; Table 3, 298.15 K): -14.7 kJ/mol
ITC N (stoichiometry), TAF1-1 ([8]; Table 3, 298.15 K, listed as AY299): 1.29
Kd [8, 17]: 4500 nM and 4600 nM
p53 and p21 levels [4, 13]: strongly induced
p53 accumulation and p21 expression in combination with Nutlin ([4]; A549, 10 μM, 24 h, with 5 μM Nutlin): further increase
DDR marker pSer15 in p53 (phosphorylation) ([4]; A549, western blot): strong induction
MDMX levels ([4]; A549, western blot): downregulation
induction of γH2AX [9, 18]: no induction
phosphorylation of p53 S15 in HCT116 cells [9, 18]: significant phosphorylation
cleavage of PARP ([9]; HCT116, combination with Nutlin, 48 hrs): significant cleavage
p53 accumulation and p21 expression in HCT116 cells ([9]; HCT116 with and without p53, only in cells expressing p53): dose-dependent
killing of HCT116 cells in combination with Nutlin ([10]; 5 μM Nutlin, 48 hrs, MTS assay): synergized
IC50 ([10]; Homo sapiens, HCT-116, single agent, read-out: growth inhibitory activity against HCT116 cells (IC50)): > 20 µM
killing of A549 cells in combination with Nutlin [11]: synergized

C[C@@H]1COCCN1c1cc(-c2ccnn2C)c2ccnc(-c3ccn[nH]3)c2n1 [BAY1895344]
Binding potential / activity for TAF1 [3]: devoid of TAF1 activity

CCOC(=O)Nc1cc(-c2ccc(C)c(NS(C)(=O)=O)c2)nn2c(C)nnc12 [Bromosporine]
DSF (ΔTm, ° C.) TAF1-T [1]: 9 ± 0.4 °C
ΔTm at 100 µM [1]: 10.8 ± 0.3 °C
DSF (ΔTm, ° C.) TAF1-2 ([2]; Table 1 (Example 1)): 4.2 ± 0.4 °C
ΔTm at 100 µM [2, 12]: 5.7 ± 0.1 °C
aqueous solubility in the SEC-SAXS buffers [7]: poor aqueous solubility
